{
  "source": "paper PMC13089524",
  "about": "“Development of SYK NanoBRET cellular target engagement assays for gain–of–function variants” (Frontiers in chemical biology, 2024)",
  "key": {"SYK(S550F)-NL [1]": {"biological_target": "T1, SYK(S550F)-NL (Homo sapiens, UniProt P43405, S550F)", "T1 construct": "host or cells: HEK293", "test": "NanoBRET cellular target engagement assay in intact live HEK293 cells, SYK(S550F)-NL", "format": "cell-based", "procedure": "(§1) NL orientations used in the respective assays are indicated. […] Plates were incubated for 25 min at room temperature if digitonin was added or for 2 h at 37°C in 5% CO2 for the intact cell NanoBRET assay. […] For intact live cells in a 96-well plate, the 3X stock solution was prepared with 30 μL of NanoBRET NanoGlo substrate, 10 μL of extracellular NanoLuc inhibitor, and 4,960 μL of Opti-MEM without phenol red. For digitonin permeabilized live cells in a 96-well plate, the 3X stock solution was prepared with 30 μL of NanoBRET NanoGlo substrate and 4,970 μL of Opti-MEM without phenol red. Raw milliBRET units (mBU) were read on a GloMax Discover system (Promega) with a donor emission wavelength of 450 nm and an acceptor emission wavelength of 600 nm. mBU were calculated by dividing the acceptor emission values (600 nm) by the donor emission values (450 nm). For NanoBRET studies with SYK, background corrected mBU were calculated by subtracting the no tracer wells from the tracer-containing wells and multiplying by 1,000.\n(§2) MRL-SYKi was used to compete away the NanoBRET signal produced with tracer 8. […] Tracer 8 was prepared in DMSO and DMEM without phenol red in 11-point dose-response format with 3 μM as the top concentration, with a final assay plate concentration of 1% DMSO. 10X stock solutions of MRL-SYKi were prepared from 10 mM DMSO stock solution with room temperature Opti-MEM without phenol red, for final assay plate concentrations of 10 μM. 10 μL of 8 (10X) was added to each well, with the exception of the no tracer control wells, and 10 μL of 10X solutions of MRL-SYKi was added to wells for tracer competition. One biological replicate was plotted in GraphPad Prism with [inhibitor] vs response (three parameters).\n(§3) MRL-SYKi was tested in 11-point dose–response format with a top concentration of 10 μM. […] The final assay plate concentrations included 1% DMSO. 5 μL of 8 (20X) was added to each well, except the no tracer control wells, and 10 μL of 10X threefold diluted solutions of MRL-SYKi was added to wells. Two biological replicates were plotted in GraphPad Prism with log[inhibitor] vs response (three parameters) with the error bars indicating standard deviation.\n(§4) Compounds were tested in 11-point dose–response format with a top concentration of 10 μM. Data are reported as IC50 ± standard error mean (SEM). One biological replicate was plotted in GraphPad Prism with log[inhibitor] vs response (three parameters), the three IC50’s were averaged and the SEM was calculated."}, "SYK(P342T)-NL [2]": {"biological_target": "T2, SYK(P342T)-NL (Homo sapiens, UniProt P43405, P342T)", "T2 construct": "host or cells: HEK293", "test": "NanoBRET cellular target engagement assay in intact live HEK293 cells, SYK(P342T)-NL", "format": "cell-based", "procedure": "as §1, §2, §3, §4"}, "JAK1": {"tested_on": "JAK1", "conditions": "ref Ma et al., 2015; Guo et al., 2017; cited from earlier work"}, "TNK1": {"biological_target": "TNK1", "conditions": "only off-target kinase bound; ref Sharman et al., 2015; Cooper et al., 2023; cited from earlier work"}, "SYK(S550Y)-NL [3]": {"biological_target": "T3, SYK(S550Y)-NL (Homo sapiens, UniProt P43405, S550Y)", "T3 construct": "host or cells: HEK293", "test": "NanoBRET cellular target engagement assay in intact live HEK293 cells, SYK(S550Y)-NL", "format": "cell-based", "conditions": "intact cells, ± 10 μM MRL-SYKi, single experiment; read-out: cellular EC50 of the tracer, SYK(S550Y)-NL", "procedure": "as §1, §2, §3, §4"}, "SYK(P342T)-NL [4]": {"biological_target": "T2, SYK(P342T)-NL", "test": "NanoBRET assay in digitonin permeabilized HEK293 cells, SYK(P342T)-NL", "format": "cell-based", "conditions": "relative to MRL-SYKi (20 μM) treated cells, single experiment, read-out: EC50 of tracer, SYK(variant)-NL P342T", "procedure": "(§5) We performed NanoBRET tracer optimization to determine if the SYK tracers could effectively generate a BRET signal. […] To enable the NanoBRET assay using tracer 8 with cells permeabilized by digitonin, a tracer dose–response study was performed for each SYK(GoF) variant and SYK(WT) (Figure 3A), followed by tracer titration experiments (Figure 3B; Supplementary Figure S3). […] Initially, we determined the EC50 of tracer 8 for each SYK(GoF) variant and SYK(WT). […] Plates were incubated for 25 min at room temperature if digitonin was added or for 2 h at 37°C in 5% CO2 for the intact cell NanoBRET assay. […] For intact live cells in a 96-well plate, the 3X stock solution was prepared with 30 μL of NanoBRET NanoGlo substrate, 10 μL of extracellular NanoLuc inhibitor, and 4,960 μL of Opti-MEM without phenol red. […] Raw milliBRET units (mBU) were read on a GloMax Discover system (Promega) with a donor emission wavelength of 450 nm and an acceptor emission wavelength of 600 nm. mBU were calculated by dividing the acceptor emission values (600 nm) by the donor emission values (450 nm). For NanoBRET studies with SYK, background corrected mBU were calculated by subtracting the no tracer wells from the tracer-containing wells and multiplying by 1,000. […]"}, "[5]": {"test": "Solubility of tracer in NanoBRET assay medium", "format": "physicochemical", "conditions": "dose-response top concentration 3 μM"}, "SYK(S550Y)-NL [6]": {"biological_target": "T3, SYK(S550Y)-NL", "test": "NanoBRET assay in digitonin permeabilized HEK293 cells, SYK(S550Y)-NL", "format": "cell-based", "conditions": "relative to MRL-SYKi (20 μM) treated cells, single experiment, read-out: EC50 of tracer, SYK(variant)-NL S550Y", "procedure": "as §5"}, "SYK(A353T)-NL": {"biological_target": "T4, SYK(A353T)-NL (Homo sapiens, UniProt P43405, A353T)", "T4 construct": "host or cells: HEK293", "test": "NanoBRET assay in digitonin permeabilized HEK293 cells, SYK(A353T)-NL", "format": "cell-based", "conditions": "relative to MRL-SYKi (20 μM) treated cells, single experiment, read-out: EC50 of tracer, SYK(variant)-NL A353T", "procedure": "as §5"}, "SYK": {"biological_target": "T5, SYK (Homo sapiens, UniProt P43405)", "T5 construct": "purchased Eurofins DiscoverX (contract assay service)", "test": "Eurofins DiscoverX SYK enzymatic radiometric assay", "format": "biochemical", "source_text": "Eurofins kinase enzymatic radiometric assays were executed at the Km value for ATP in dose–response (9-pt curve) format for SYK, included in Table 1 as enzymatic IC50 values."}, "SYK(WT)": {"biological_target": "T6, SYK(WT) (Homo sapiens, UniProt P43405)", "T6 construct": "Full-length human SYK(WT) DNA was custom synthesized (GenScript); 6His (N, cleaved yes); GST (N, cleaved yes); made in house; host or cells: Sf9 insect cells (baculovirus, pFastbac1)", "test": "PhosphoSens SOX peptide kinase activity assay, SYK(WT)", "format": "biochemical", "conditions": "dose-response, purified protein", "excerpt": "Full-length human SYK(WT) DNA was custom synthesized (GenScript) as a codon optimized form for expression in Sf9 cells. N-terminal 6His and GST tags were introduced, followed by a TEV protease cleavage site, and cloned into pFastbac1. SYK(S550F) and SYK(P342T) were generated by site-directed mutagenesis of SYK(WT) using the NEB Q5 site directed mutagenesis kit. Plasmids were transformed into E. coli DH10Bac for bacmid generation. Recombinant bacmid DNA was used to transfect Sf9 cells to generate viral stocks. For large-scale protein production, 2 L of Sf9 cells at 2 × 10^6 cells/ml were infected with a P2 virus stock and allowed to incubate with shaking for 3 days at 27°C. Harvested cells were lysed in 200 mL lysis buffer containing 50 mM HEPES (pH 7.5), 500 mM NaCl, 10 mM imidazole, 10% glycerol, 1 mM TCEP. […]\nSYK kinase activity was evaluated using a continuous kinase assay using a PhosphoSens (AssayQuant) SOX peptide, according to the protocol provided, with modifications. […] Fluorescence readings were taken at 30-s intervals for a duration ranging from 30 min to an hour, using a PheraStar FX device set to kinetic mode, employing an appropriate optics module (FI 350 460). The data was represented as a plot of relative fluorescence over time, deducting the fluorescence of control reactions (which lacked kinase) from the fluorescence recorded after introducing the kinase. […]"}, "SYK(M450I)-NL": {"biological_target": "T7, SYK(M450I)-NL (Homo sapiens, UniProt P43405, M450I)", "T7 construct": "host or cells: HEK293", "test": "NanoBRET assay in digitonin permeabilized HEK293 cells, SYK(M450I)-NL", "format": "cell-based", "conditions": "relative to MRL-SYKi (20 μM) treated cells, single experiment, read-out: EC50 of tracer, SYK(variant)-NL M450I", "procedure": "as §5"}, "SYK(WT)-NL": {"biological_target": "T8, SYK(WT)-NL (Homo sapiens, UniProt P43405)", "T8 construct": "SYK tracers enable BRET with full-length SYK(WT) after digitonin permeabilization; host or cells: HEK293", "test": "NanoBRET assay in digitonin permeabilized HEK293 cells, SYK(WT)-NL", "format": "cell-based", "procedure": "We performed NanoBRET tracer optimization to determine if the SYK tracers could effectively generate a BRET signal. […] To enable the NanoBRET assay using tracer 8 with cells permeabilized by digitonin, a tracer dose–response study was performed for each SYK(GoF) variant and SYK(WT) (Figure 3A), followed by tracer titration experiments (Figure 3B; Supplementary Figure S3). […] Initially, we determined the EC50 of tracer 8 for each SYK(GoF) variant and SYK(WT). […] Plates were incubated for 25 min at room temperature if digitonin was added or for 2 h at 37°C in 5% CO2 for the intact cell NanoBRET assay. […] For intact live cells in a 96-well plate, the 3X stock solution was prepared with 30 μL of NanoBRET NanoGlo substrate, 10 μL of extracellular NanoLuc inhibitor, and 4,960 μL of Opti-MEM without phenol red. For digitonin permeabilized live cells in a 96-well plate, the 3X stock solution was prepared with 30 μL of NanoBRET NanoGlo substrate and 4,970 μL of Opti-MEM without phenol red. Raw milliBRET units (mBU) were read on a GloMax Discover system (Promega) with a donor emission wavelength of 450 nm and an acceptor emission wavelength of 600 nm. mBU were calculated by dividing the acceptor emission values (600 nm) by the donor emission values (450 nm). For NanoBRET studies with SYK, background corrected mBU were calculated by subtracting the no tracer wells from the tracer-containing wells and multiplying by 1,000.\nHEK293 cells were transfected with constructs of SYK(WT) or SYK(KD) tagged with NL on the C- or N-terminus and SYK GoF variants tagged with NL on the C-terminus. Tracer 8 (20X) was prepared from a 400 μM stock solution in DMSO with tracer dilution buffer (Promega, #N291B) and 20% DMSO, with a final assay plate concentration of 1% DMSO. 5 μL of 8 (20X) was added to each well, with exception of the no tracer control wells, with final plate concentrations of 0.5, 1, and 2 μM. 10 μL of digitonin (Fisher, 10X, 500 μg/mL) was added to specific wells to permeabilize the cells. The 10X digitonin stock was prepared by diluting a 40X DMSO solution of digitonin with room temperature Opti-MEM without phenol red, for a final assay plate concentration of 1% DMSO. SYK inhibitor stock solutions of MRL-SYKi (10X) were prepared from 10 mM DMSO stock solutions with room temperature Opti-MEM without phenol red, for final assay plate concentrations of 10 μM. Plates were incubated for 25 min at room temperature if digitonin was added or for 2 h at 37°C in 5% CO2 for the intact cell NanoBRET assay. Two technical replicates were plotted in a bar chart with the standard deviation represented as error bars on Graphpad Prism."}, "SYK(S550F)-NL [7]": {"biological_target": "T1, SYK(S550F)-NL", "test": "NanoBRET assay in digitonin permeabilized HEK293 cells, SYK(S550F)-NL", "format": "cell-based", "conditions": "relative to MRL-SYKi (20 μM) treated cells, single experiment, read-out: EC50 of tracer, SYK(variant)-NL S550F", "procedure": "as §5"}, "[8]": {"tested_on": "pSYK(Y525/526) in SW480 cells stably expressing SYK(S550Y)", "conditions": "ref Wang et al. (2021); cited from earlier work"}},
  "data": [
    {"smiles": "CCS(=O)(=O)N1CCN(c2ccc(Nc3ncc(C(N)=O)c(NC4CC4)n3)cc2)CC1", "note": "[Cerdulatinib]", "values": [
      {"measurement": "IC50", "setting": "SYK(S550F)-NL [1]; intact HEK293 cells, 125 nM tracer 8, average of triplicate ± SEM, read-out: SYK(S550F) IC50", "result": "170 ± 21", "unit": "nM"},
      {"measurement": "IC50", "setting": "SYK(P342T)-NL [2]; intact HEK293 cells, 125 nM tracer 8, average of triplicate ± SEM, read-out: SYK(P342T) IC50", "result": "360 ± 36", "unit": "nM"},
      {"measurement": "IC50", "setting": "JAK1", "result": 12, "unit": "nM"}
    ]},
    {"smiles": "c1cn2cc(-c3ccc4cn[nH]c4c3)nc(Nc3ccc(N4CCOCC4)cc3)c2n1", "note": "[Entospletinib]", "values": [
      {"measurement": "Kd", "setting": "TNK1", "result": "< 100", "unit": "nM"}
    ]},
    {"smiles": "Cc1cc(Nc2nccc(C)n2)cc(-c2cnc([C@@]3(O)CC[C@H](C(=O)NCCCNC(=O)CCc4ccc5n4[B-](F)(F)[N+]4=C(c6ccc[nH]6)C=CC4=C5)C(C)(C)C3)s2)c1", "note": "[Tracer 8]", "values": [
      {"measurement": "EC50", "setting": "SYK(S550Y)-NL [3]", "result": 159, "unit": "nM"},
      {"measurement": "EC50", "setting": "SYK(P342T)-NL [4]", "result": 9, "unit": "nM"},
      {"measurement": "solubility", "setting": "[5]", "result": "solubility issues at >3 μM"},
      {"measurement": "EC50", "setting": "SYK(S550Y)-NL [6]", "result": 8, "unit": "nM"},
      {"measurement": "EC50", "setting": "SYK(A353T)-NL", "result": 24, "unit": "nM"},
      {"measurement": "EC50", "setting": "SYK(S550F)-NL [1]; intact cells, ± 10 μM MRL-SYKi, single experiment, read-out: cellular EC50 of the tracer, SYK(S550F)-NL", "result": 273, "unit": "nM"},
      {"measurement": "IC50", "setting": "SYK; Km value for ATP, 9-pt dose-response", "result": 110, "unit": "nM"},
      {"measurement": "decrease in potency compared to the parent inhibitor MRL-SYKi", "setting": "SYK; ratio of enzymatic IC50", "result": 3.6, "unit": "fold"},
      {"measurement": "effect on SYK(WT) catalytic activity", "setting": "SYK(WT)", "result": "inhibits SYK(WT) catalytic activity"},
      {"measurement": "EC50", "setting": "SYK(M450I)-NL", "result": 65, "unit": "nM"},
      {"measurement": "BRET signal (background subtracted)", "setting": "SYK(WT)-NL; C-terminal NL fusion, tracer 0.5, 1, 2 μM", "result": "approximately 15 mBU"},
      {"measurement": "EC50", "setting": "SYK(WT)-NL; relative to MRL-SYKi (20 μM) treated cells, single experiment, read-out: EC50 of tracer, SYK(variant)-NL WT", "result": 39, "unit": "nM"},
      {"measurement": "EC50", "setting": "SYK(P342T)-NL [2]; intact cells, ± 10 μM MRL-SYKi, single experiment, read-out: cellular EC50 of the tracer, SYK(P342T)-NL", "result": 280, "unit": "nM"},
      {"measurement": "EC50", "setting": "SYK(S550F)-NL [7]", "result": 7, "unit": "nM"}
    ]},
    {"smiles": "COc1cc(Nc2ncc(F)c(Nc3ccc4c(n3)NC(=O)C(C)(C)O4)n2)cc(OC)c1OC", "note": "[Tracer R406]", "values": [
      {"measurement": "S550Y phosphorylation levels", "setting": "[8]", "result": "decrease S550Y phosphorylation levels"}
    ]}
  ]
}
